Experimental data: patent publication US12576051B2, “Methods and composition for treating respiratory obstructive diseases” (The Regents of the University of California, priority 2019, dated 2026)
“Also recorded” adds a separate entry of the source.

Assays:
secreted Muc5ac mucin = experiment: Mucolytic activity on secreted Muc5ac mucin of open porcine trachea sections (western blot); conditions: 2 mM, HCO3-Ringer with PGE2 (1 uM), 10 minutes at 37° C.; FIG. 18
Description: FIG. 18 provides the mucolytic activity of compounds on secreted Muc5ac mucin. Epithelial luminal surface of open porcine trachea sections (˜2 cm^2) were covered with HCO3-Ringer solution ([…]) containing PGE2 (1 uM), and alcian blue (0.02%), with or without compounds at a 2 mM final concentration, and incubated for 10 minutes at 37° C. Equal volumes of each collected sample were separated on vertical electrophoresis, and then transfer to an immobilon-P membrane for western blot analysis. […] Densitometric signal of the untreated sample, as control, was normalized to 100% (% arbitrary units).
Epithelial luminal surface of open porcine trachea sections (˜2 cm^2) were covered with […] of HCO3-Ringer solution containing PGE2 (1 uM), in the presence or absence of compounds at a 2 mM final concentration, and incubated for 5 minutes at 37° C. Afterwards, […] of sterile 7% NaCl inhaled solution was added and incubated for another 5 mins at 37° C. Equal volumes of each collected sample were separated on vertical electrophoresis, and then transferred to an immobilon-P membrane for western blot analysis. […] Densitometric signal of the non-treated sample, as control, was normalized to 100% (% arbitrary units).

porcine airway mucus = experiment: Mucolytic activity on porcine airway mucin (electrophoresis, Coomassie stain); type: biochemical; conditions: for protein bands at 600 and 200 kDa of airway mucus: NaHCO3-Ringer, 60 minutes at 37° C., hydrochloride
Description: FIG. 9 presents the effect of compound 646 on porcine airway mucus. Mucus collected from porcine upper airways diluted in NaHCO3-Ringer, was treated with different concentrations of compound 646 (0, 0.25. 0.5 and 1 mM), for 60 minutes at 37° C. In lane 1, representative protein pattern after electrophoresis protein separation of untreated porcine airway mucus (40 μg/well).
Airway mucus supernatant diluted in NaHCO3-Ringer was treated with or without cysteamine bitartrate under basic and acidic conditions at 37° C. for 60 minutes.
Biological specimens: Isolated native porcine airways were used as experimental model. Sections of open trachea tissue (approx. 2 cm^2) were carefully rinsed and cover small volume of NaHCO3-Ringer solution. Mucus secretion was stimulated with Prostaglandin E2 (PGE2, 10−6 M). Secreted mucus over the dissected open airways was carefully collected, aliquoted and immediately frozen at −80° C.
Mucolytic activity on porcine airway mucin: One hundred microliters of collected porcine airway supernatant was incubated with Cysteamine bitartrate or compound 646 at final concentrations from 0 to 2 mM as indicated in the text. Mucolytic activity was ended with 30 microliters of SDS-sample buffer solution. 45 microliters of each sample/well were separated in an electrophoresis gel 4-12% Tris-Glycine. After electrophoresis gels were stained with Coomassie Blue solution.
Mucolytic activity of synthetic compound 646. Respiratory airway mucus contained Muc5aC and Muc5B mucins. In order to determine whether compound 646 be used as a mucolytic agent for respiratory airways, supernatant of mucus collected from porcine airways was treated with compound 646 at different concentration (0-1 mM) for 1 h at 37° C.
Mucolytic activity of cysteamine bitartrate under basic and acidic conditions. To validate whether mucolytic activity of cysteamine bitartrate depends on changes of pH, airway mucus supernatant was incubated for 1 h at 37° C. with or without 2 mM cysteamine bitartrate diluted in NaHCO3. An additional airway mucus sample was treated with cysteamine bitartrate and supplemented with 4 μL of 0.1 N of acetic solution pH 4.5. […] The reduction, however, was approximately half of the decrease seen under acidic conditions.

[1] = system: respiratory secreted mucus; experiment: Mucolytic activity on respiratory secreted mucus of open porcine trachea sections (alcian blue); conditions: 2 mM, HCO3-Ringer with PGE2 (1 uM) and alcian blue (0.02%), 10 minutes at 37° C.; untreated showed clusters of secreted mucus; hydrochloride
Description: (§1) FIG. 16 provides the mucolytic activity of compounds 646 and 647 on respiratory secreted mucus. Small sections of open porcine trachea (˜2 cm^2) were covered with HCO3-Ringer solution ([…]) containing PGE2 (1 uM) and alcian blue (0.02%), with or without compounds at a 2 mM final concentration, and then incubated for 10 minutes at 37° C.
as §1, with “17” for “16”, “655” for “646”, “656” for “647”

Substance: 2-aminoethane-1-d-1-thiol hydrochloride [Compound 646]
- native Muc5ac levels on epithelial luminal surfaces (immunoblot) (secreted Muc5ac mucin): decreased native Muc5ac levels
- protein bands at 600 and 200 kDa of airway mucus (porcine airway mucus; 0.5 mM): two major changes in the proteins at the level of 600 and 200 kDa; also recorded: major changes on two protein bands
- protein bands at 600 and 200 kDa of airway mucus (porcine airway mucus; 1 mM): two major changes in the proteins at the level of 600 and 200 kDa; also recorded: major changes on two protein bands
- mucolytic effect on airway mucus (porcine airway mucus; mucus collected from porcine airways, summary of FIG. 9): mucolytic effect, similar to cysteamine
- appearance of secreted mucus on trachea sections [1]: dispersed clusters of secreted mucus
